{
  "source": "patent US8143226B2",
  "about": "“Tyrosine kinase receptor antagonists and methods of treatment for breast cancer” (The Regents of the University of California, priority 2005, dated 2012)",
  "key": {"[1]": {"conditions": "single injection, mouse, intravenous; cited from earlier work"}, "IGF-IR": {"target": "T1, IGF-IR (Homo sapiens, UniProt P08069)", "T1 construct": "endogenous in cells; host or cells: SH-SY5Y and SHEP", "T1 sequence (P08069 31-1367)": "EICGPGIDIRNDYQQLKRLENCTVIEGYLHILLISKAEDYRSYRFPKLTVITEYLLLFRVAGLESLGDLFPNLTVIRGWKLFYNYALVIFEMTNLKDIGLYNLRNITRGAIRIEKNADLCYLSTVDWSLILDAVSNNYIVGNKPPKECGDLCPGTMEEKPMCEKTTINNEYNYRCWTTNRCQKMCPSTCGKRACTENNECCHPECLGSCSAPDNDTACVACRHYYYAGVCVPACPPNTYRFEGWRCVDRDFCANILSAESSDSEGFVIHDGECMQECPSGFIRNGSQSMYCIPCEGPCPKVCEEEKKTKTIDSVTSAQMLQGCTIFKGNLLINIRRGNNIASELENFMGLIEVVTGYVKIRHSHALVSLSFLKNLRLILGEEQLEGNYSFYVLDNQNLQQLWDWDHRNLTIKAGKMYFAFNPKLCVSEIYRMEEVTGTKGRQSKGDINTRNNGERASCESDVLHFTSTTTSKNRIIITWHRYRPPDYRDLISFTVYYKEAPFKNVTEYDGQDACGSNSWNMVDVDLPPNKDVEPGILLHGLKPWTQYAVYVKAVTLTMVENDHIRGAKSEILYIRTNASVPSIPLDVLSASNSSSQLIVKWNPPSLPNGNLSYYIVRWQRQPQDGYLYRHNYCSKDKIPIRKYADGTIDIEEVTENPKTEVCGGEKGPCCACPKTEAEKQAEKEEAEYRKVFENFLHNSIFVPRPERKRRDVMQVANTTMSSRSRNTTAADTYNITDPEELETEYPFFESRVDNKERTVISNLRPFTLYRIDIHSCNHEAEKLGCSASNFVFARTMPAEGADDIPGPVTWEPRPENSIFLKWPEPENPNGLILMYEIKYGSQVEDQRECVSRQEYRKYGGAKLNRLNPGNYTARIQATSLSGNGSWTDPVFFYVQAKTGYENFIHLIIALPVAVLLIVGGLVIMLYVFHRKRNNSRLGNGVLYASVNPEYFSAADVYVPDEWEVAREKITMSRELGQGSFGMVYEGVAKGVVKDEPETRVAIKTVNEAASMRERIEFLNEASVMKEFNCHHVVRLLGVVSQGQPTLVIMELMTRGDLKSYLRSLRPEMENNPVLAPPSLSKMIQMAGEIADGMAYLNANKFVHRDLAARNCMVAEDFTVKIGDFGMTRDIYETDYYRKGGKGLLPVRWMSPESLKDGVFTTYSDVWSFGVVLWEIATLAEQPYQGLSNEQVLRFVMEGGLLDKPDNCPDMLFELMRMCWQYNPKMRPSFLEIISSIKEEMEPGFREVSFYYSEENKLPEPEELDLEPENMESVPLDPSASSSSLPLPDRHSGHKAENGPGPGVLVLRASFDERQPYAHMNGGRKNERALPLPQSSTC", "assay": "IGF-IR phosphorylation ELISA in neuroblastoma cells", "assay_type": "cell-based", "conditions": "SHEP and SH-SY5Y cells, 60 μM NDGA 1 h, 1 nM IGF-I 10 min", "description": "IGF-1R phlosphorylation ELISA. SH-SY5Y and SHEP cells were grown to 80% confluence in DMEM/10% calf serum, then serum-starved for 4 h. […] Some cultures were then treated with 1 nM IGF-I for 10 min. The medium was removed, cultures rinsed 3× in cold PBS, and lysis buffer (120 mM HEPES, 300 mM NaCl, 2 mM sodium orthovanadate, and 1 mM phenylmethylsufonylfluoride (PMSF)) was added. Cultures were rocked in lysis buffer at 4° C. for 1 h. 96-well plates were coated with αIR-3 antibody in 50 mM NaHCO3, pH 9.0, for 2 h at RT. Plates were rinsed 3× in tris-buffered saline +0.1% Tween (TBST), then blocked with SuperBlock (Pierce, Rockford, Ill.) for 30 min at RT. Each well of the ELISA plate received 30 μg of lysate protein from the cell cultures, followed by 24 h incubation at 4° C. Plates were rinsed 5× with TBST, and HRP-conjugated anti-phosphotyrosine antibody was added (1:2000, diluted in 120 mM HEPES, 300 mM NaCl, 2 mM sodium orthovanadate. and 1 mM PMSF. 1% bovine serum albumin, 1 mg/ml bacitracin, and 0.5% Tween-20) for 2 h at RT. Plates were again rinsed 5× in TBST, and TMB (Pierce) was added until blue color was sufficiently developed. […] Each lysate was run in triplicate, and the experiment was repeated 3 times."}, "HER2": {"target": "T2, HER2 (Homo sapiens, UniProt P04626)", "T2 construct": "MCF-7 cells stably transfected with the full length HER2 cDNA (MCF-7/HER2-18); expressed in transfected cells; host or cells: MCF-7/HER2-18 (from Dr. Christopher Benz)", "T2 sequence (P04626 23-1255)": "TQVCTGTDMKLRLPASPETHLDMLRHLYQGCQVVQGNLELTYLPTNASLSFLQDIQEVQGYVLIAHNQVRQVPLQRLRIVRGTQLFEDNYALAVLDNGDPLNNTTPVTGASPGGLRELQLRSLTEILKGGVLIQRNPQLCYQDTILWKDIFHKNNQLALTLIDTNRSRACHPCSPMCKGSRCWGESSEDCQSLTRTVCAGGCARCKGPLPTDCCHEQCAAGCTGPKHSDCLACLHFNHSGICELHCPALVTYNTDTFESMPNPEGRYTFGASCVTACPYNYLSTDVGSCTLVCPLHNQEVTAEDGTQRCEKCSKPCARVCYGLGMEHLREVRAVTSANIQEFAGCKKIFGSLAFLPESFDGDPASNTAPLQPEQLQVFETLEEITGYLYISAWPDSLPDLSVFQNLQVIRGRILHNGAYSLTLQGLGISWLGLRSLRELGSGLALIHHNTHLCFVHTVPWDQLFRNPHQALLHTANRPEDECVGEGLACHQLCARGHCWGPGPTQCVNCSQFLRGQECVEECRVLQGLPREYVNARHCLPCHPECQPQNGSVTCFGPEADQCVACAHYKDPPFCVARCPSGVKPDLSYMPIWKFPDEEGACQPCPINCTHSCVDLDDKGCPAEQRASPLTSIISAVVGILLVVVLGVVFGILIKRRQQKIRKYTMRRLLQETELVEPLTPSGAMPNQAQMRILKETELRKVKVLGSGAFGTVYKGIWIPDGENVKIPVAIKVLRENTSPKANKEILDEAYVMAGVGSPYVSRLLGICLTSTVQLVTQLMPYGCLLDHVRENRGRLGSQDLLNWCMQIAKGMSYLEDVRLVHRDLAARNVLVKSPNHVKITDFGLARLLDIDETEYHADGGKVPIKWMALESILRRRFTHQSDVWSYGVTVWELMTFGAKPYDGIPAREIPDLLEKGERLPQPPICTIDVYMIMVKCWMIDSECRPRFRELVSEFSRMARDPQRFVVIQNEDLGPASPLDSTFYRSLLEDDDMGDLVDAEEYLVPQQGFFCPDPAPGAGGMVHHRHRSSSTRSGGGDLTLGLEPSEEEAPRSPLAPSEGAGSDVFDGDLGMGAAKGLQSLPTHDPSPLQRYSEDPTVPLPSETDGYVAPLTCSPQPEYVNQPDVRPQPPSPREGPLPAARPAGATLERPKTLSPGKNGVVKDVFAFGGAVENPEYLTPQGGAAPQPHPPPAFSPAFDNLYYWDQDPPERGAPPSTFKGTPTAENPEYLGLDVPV", "assay": "HER2 phosphorylation ELISA in MCF-7/HER2-18 cells", "assay_type": "cell-based", "conditions": "not stimulated", "method": "RTK inhibitors were dissolved in DMSO and diluted with culture medium before being added to cells for 1.5 hour at 37° C. The final concentration of DMSO during the incubation was 0.3% . For some studies, cells were also stimulated with 3 nM IGF-I for 10 minutes at 37° C. Reactions were terminated by rapidly aspirating medium and washing cells three times with ice cold PBS. Cells were harvested and solubilized in 50 mM HEPES, 150 mM NaCl, 1% Triton X-100, 1 mM PMSF, and 2 mM vanadate for 1 hour at 4° C. Protein concentrations were determined by BCA assay (Pierce, Rockford, Ill.). […] Briefly, 10 μg lysate protein were added to triplicate wells in a 96-well plate coated with monoclonal antibody to the IGF-IR (IR3; 2 μg/ml), and incubated for 18 hours at 4° C. Plates were washed five times and then HRP-conjugated anti-phosphotyrosine antibody (0.3 μg/ml), diluted in Solution B (50 mM HEPES, pH 7.6, 150 mM NaCl, 0.05% Tween-20, 1 mM PMSF, 2 mM vanadate and 1 mg/ml bacitracin), was added for two hours at 22° C. Plates were washed five times prior to color development with TMB substrate, which was terminated with 1.0 M H3PO4. Values for receptor phosphorylation were determined by measuring absorbance at 450 nm.\nHER2 phosphorylation was also determined by ELISA as above, using 2 μg of lysate protein per well and 2 μg/ml Herceptin as the capturing antibody."}, "caspase-3": {"test_system": "caspase-3", "assay": "Caspase-3 cleavage in SH-SY5Y cells", "assay_type": "cell-based, human", "conditions": "SH-SY5Y cells in serum, 6 h", "excerpt": "Detection of Caspase-3 cleavage. […] Lysates were collected as described above, and the 14/17 kD cleavage fragments of caspase-3 were detected via SDS-PAGE followed by immunoblotting with anti-cleaved caspase-3 antibody."}, "SH-SY5Y cells": {"test_system": "SH-SY5Y cells", "assay": "Propidium iodide flow cytometry of apoptotic (sub-G0) SH-SY5Y cells", "assay_type": "cell-based, human", "conditions": "SH-SY5Y cells in serum, 30-120 μM, 24 h", "description": "Propidium iodide staining of apoptotic cells. SH-SY5Y cells were cultured in DMEM with 10% calf serum. […] The supernatant was collected to save detached cells. Attached cells were removed from the plate via trypsinization, and pelleted by centrifugation in combination with the cells in the supernatant. The cell pellet was fixed by drop-wise addition of cold 70% ethanol while vortexing, gently, and stored at 4° C. The pellet was washed twice and resuspended in PBS and stained with 1 μg/ml propidium iodide. Propidium iodide fluorescence was measured in 30,000 cells per sample using a Becton-Dickinson (Franklin Lakes, N.J.) Facscalibur flow cytometer. The percentage of cells in each stage of the cell cycle, as well as the percentage of cells that were apoptotic (sub-G0) was determined by analyzing the data with ModFit software. The experiment was repeated three times."}, "pancreatic cancer cells": {"test_system": "pancreatic cancer cells", "assay": "Growth of pancreatic cancer cells in vitro", "assay_type": "cell-based", "conditions": "FIG. 3"}, "[2]": {"target": "T3, IGF-1R kinase domain peptide (Homo sapiens, UniProt P08069)", "T3 construct": "purchased Upstate, USA (Charlottesville, Va.)", "T3 sequence (P08069 989-1367)": "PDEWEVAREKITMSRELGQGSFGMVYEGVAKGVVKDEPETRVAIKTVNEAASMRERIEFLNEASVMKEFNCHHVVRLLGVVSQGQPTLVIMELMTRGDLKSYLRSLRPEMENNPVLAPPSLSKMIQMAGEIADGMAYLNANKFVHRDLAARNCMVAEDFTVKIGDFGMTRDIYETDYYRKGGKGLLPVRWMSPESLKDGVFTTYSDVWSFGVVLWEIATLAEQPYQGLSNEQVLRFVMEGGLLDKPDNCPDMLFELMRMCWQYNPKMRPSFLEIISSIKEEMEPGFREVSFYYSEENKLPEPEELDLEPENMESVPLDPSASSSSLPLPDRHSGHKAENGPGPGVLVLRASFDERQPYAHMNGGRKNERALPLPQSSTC", "assay": "IGF-1R kinase domain peptide autophosphorylation (western blot)", "assay_type": "biochemical", "conditions": "peptide incubated with NDGA prior to 20 μM ATP", "description": "ATP was then added at a final concentration of 20 μM. Autophosphorylation of peptide was allowed to occur for 20 min at 22° C. The reaction was stopped by the addition of SDS-reducing buffer, and the samples were run on SDS-PAGE. Following transfer to nitrocellulose membrane, peptide autophosphorylation was determined by western blotting employing an antibody against phosphotyrosine diluted to 0.5 μg/ml in phosphate buffered saline (PBS) containing 3% milk. The membrane was incubated with the antibody overnight at 4 C. Next, blots were washed 3 times with PBS, then incubated with HRP conjugated sheep anti-rabbit IgG (Amersham, Piscataway, N.J.) diluted 1:50,000 in PBS with 3% milk for 90 minutes at room temperature. After washing, blots were incubated with Super-Signal (Pierce, Rockford, Ill.), and exposed to film. Values were determined by scanning densitometry."}, "PDGF receptor": {"test_system": "PDGF receptor", "conditions": "Domin et al. 1994; cited from earlier work"}, "MCF-7/HER2-18 cells": {"test_system": "MCF-7/HER2-18 cells", "assay": "Growth of MCF-7/HER2-18 cells with RTK inhibitors, 6 days (CyQuant)", "assay_type": "cell-based, human", "conditions": "read-out: one half maximal effect on growth", "description": "MCF-7/neo or MCF-7/HER2-18 cells were plated in 96 well plates (4×10^3 cells/well) in 100 μl/well of DMEM-10 medium. […] Media with inhibitors was refreshed on day 3 and the cultures were harvested on day 6. The plates were inverted onto paper towels with gentle blotting to remove growth medium without disrupting adherent cells. Each plate was kept at −80° C. until assayed for cell growth. After thawing the plate at room temperature, 200 μl of CyQuant GR solution was added to each well and the plates were incubated in the dark for five minutes. Fluorescence was measured with a SpectraMax Gemini XS fluorescence microplate reader (Molecular Devices) with 480-nm excitation and 520-nm emission."}, "[3]": {"test_system": "Kelly human neuroblastoma cells", "description": "Briefly, 7×10^6 Kelly human neuroblastoma cells were resuspended in a 1:1 mixture of PBS and Matrigel (BD Clontech Inc.) and 100 μl of the mixture was injected subcutaneously into the flanks of 6-12 week-old BALB/c nude mice. […] Tumors were then harvested, weighed and measured. The formula width^2×length/2 was used to calculate tumor-volumes."}, "MCF-7/neo cells": {"test_system": "MCF-7/neo cells", "assay": "Tamoxifen and/or NDGA growth inhibition of MCF-7/neo cells (CyQuant)", "assay_type": "cell-based", "conditions": "Homo sapiens, MCF7", "description": "Cells were estrogen-starved for three days in DMEM containing 10% charcoal-[…]-stripped FCS (CDSS) prior to their plating in 96 well plates. Cells were plated in 100 μl of the same media, allowed to adhere overnight, and then were switched to DMEM+10% CDSS supplemented with 100 pM estrogen. […] The media and inhibitors were refreshed on day 3, the cultures were harvested on day 6, and a CyQuant assay was performed as described above."}},
  "note": "Where two headings read alike, the source gives them in different places.",
  "data": [
    {"compound": "CC(Cc1ccc(O)c(O)c1)C(C)Cc1ccc(O)c(O)c1", "note": "(stereo not drawn) [NDGA, nordihydroguaiaretic acid]", "values": [
      {"measurement": "terminal half-life", "setting": "[1]", "result": 2.25, "unit": "h"},
      {"measurement": "IGF-I stimulated IGF-IR tyrosine phosphorylation", "setting": "IGF-IR", "result": "inhibited"},
      {"measurement": "HER2 phosphorylation", "setting": "HER2", "result": "strongly inhibited"},
      {"measurement": "IC50", "setting": "HER2; read-out: half maximal effect on HER2 phosphorylation", "result": "~30", "unit": "µM"},
      {"measurement": "caspase-3 activation", "setting": "caspase-3", "result": "dose-dependent caspase-3 activation"},
      {"measurement": "percentage of sub-G0 cells", "setting": "SH-SY5Y cells", "result": "dramatic, dose-dependent increase"},
      {"measurement": "growth of pancreatic cancer cells in vitro", "setting": "pancreatic cancer cells", "result": "inhibiting"},
      {"measurement": "concentration at which activation of the IGF-1R kinase domain was inhibited", "setting": "[2]", "result": 1, "unit": "µM"},
      {"measurement": "activation of the PDGF receptor", "setting": "PDGF receptor", "result": "inhibits"},
      {"measurement": "IC50", "setting": "MCF-7/HER2-18 cells; Homo sapiens, 144 h", "result": 12.5, "unit": "µM"},
      {"measurement": "IC50", "setting": "MCF-7/HER2-18 cells", "result": "10 to 20", "unit": "µM"},
      {"measurement": "inhibition of tumor growth", "setting": "[3]; 50 mg/kg daily for 10 d, nude mice, Kelly xenografts", "result": 50, "unit": "%"},
      {"measurement": "tolerability in mice", "setting": "[3]; mouse, in vivo", "result": "very well tolerated"},
      {"measurement": "inhibition at 10 µM", "setting": "MCF-7/neo cells", "result": 23, "unit": "%"},
      {"measurement": "inhibition at 15 µM", "setting": "MCF-7/neo cells", "result": 55, "unit": "%"}
    ]}
  ]
}
